This is an account of results in patent US7344829B2, “Methods for detecting the efficacy of anticancer treatments” (Board of Regents, the University of Texas System, priority 2000, dated 2008).

For one assay, the target named is T1, Tek (Homo sapiens, UniProt Q02763).
T1 construct: GST-fused kinase domains of Kdr, Flt-1, Flk, Tek, c-Met, and c-Kit were expressed in baculovirus; GST; made in house
As to the kind of experiment: GST-fused kinase domain assay, Tek. The format is biochemical. As for the experimental part:
(§1) GST-fused kinase domains of Kdr, Flt-1, Flk, Tek, c-Met, and c-Kit were expressed in baculovirus and purified over glutathione-Sepharose. Kinase inhibition was measured by detecting the decrease in phosphorylation of poly(Glu,Tyr 4:1) essentially as previously described for EGF-R. Each kinase was incubated under optimized buffer conditions in 20 mM Tris-HCl, pH 7.5, 1–3 mM MnCl2, 3–10 mM MgCl2, 10 μM Na3VO4, 1 mM DTT, 0.2 μCi/[γ-^33P]ATP, 1–8 μM ATP, 3–8 μg/ml poly(Glu,Tyr 4:1), 1% DMSO in a total volume of 30 μl in the presence or absence of PKI166 for 10 min at ambient temperature. Reactions were terminated by adding 10 μl of 250 mM EDTA, and the reaction mixture was transferred onto an Immobilon-PVDG membrane (Millipore, Bedford, Mass.). Following a washing (0.5% H3PO4), a soaking in EtOH, and drying, filters were counted in a liquid scintillation counter. IC50 values for PKI166 were calculated by linear regression analysis of the percentage inhibition. Inhibition of Cdc2/cyclin B protein kinase (Arion et al. 1988; Partanen et al. 1991) and PKC (McGlynn et al. 1992b) was assayed as previously described.

For a further assay, the target named is T2, c-Kit (Homo sapiens, UniProt P10721).
T2 construct: GST-fused kinase domains of Kdr, Flt-1, Flk, Tek, c-Met, and c-Kit were expressed in baculovirus; GST; made in house
T2 sequence (P10721 589-937 limits assumed): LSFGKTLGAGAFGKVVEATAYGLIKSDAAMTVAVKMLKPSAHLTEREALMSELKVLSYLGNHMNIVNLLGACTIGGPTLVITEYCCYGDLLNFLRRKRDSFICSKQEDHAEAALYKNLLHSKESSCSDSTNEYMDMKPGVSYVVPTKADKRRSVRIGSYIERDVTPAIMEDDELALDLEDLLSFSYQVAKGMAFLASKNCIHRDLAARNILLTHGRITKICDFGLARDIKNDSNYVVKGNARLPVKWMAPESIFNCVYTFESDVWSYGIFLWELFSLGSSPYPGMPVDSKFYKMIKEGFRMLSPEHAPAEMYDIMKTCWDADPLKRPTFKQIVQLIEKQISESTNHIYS
The experiment in a line: GST-fused kinase domain assay, c-Kit. The format is biochemical. The procedure: as §1

In assay [1] the test system is L3.6pl human pancreatic cancer cells. The experiment in a line: Immunohistochemical analysis of human pancreatic carcinoma in the pancreas of treated nude mice. Type of assay: in vivo. The note with it: for PCNA+ tumor cells / TUNEL+ tumor cells: mean ± SD, 10 random 0.159-mm^2 fields at ×100; for CD (CD31, tumor MVD per field): staining with antibodies against CD31. The text has this:
Immunohistochemical (IHC) Determination of VEGF, IL-8, PCNA, CD31/PECAM-1, and EGF-R. Paraffin-embedded tissues were used for identification of VEGF, IL-8, EGF-R, and proliferating cell nuclear antigen (PCNA). Sections (4–6 μm thick) were mounted on positively-charged Superfrost slides (Fisher Scientific, Co., Houston, Tex.) and dried overnight. Sections were deparaffinized in xylene followed by treatment with a graded series of alcohol (100%, 95%, 80% ethanol/ddH2O [v/v]) and rehydrated in PBS, pH 7.5. Sections analyzed for PCNA were microwaved 5 min for “antigen retrieval” (Shi et al. 1991). All other paraffin-embedded tissues were treated with pepsin (Biomeda) for 15 min at 37° C. and washed with PBS. Frozen tissues used for identification of CD31/PECAM-1, and activated EGF-R were sectioned (8–10 μm), mounted on positively charged Plus slides (Fisher Scientific), and air-dried for 30 min. Frozen sections were fixed in cold acetone (5 min), acetone/chloroform (v/v) (5 min), and acetone (5 min) and washed with PBS. Immunohistochemical procedures were performed as described previously (Rak et al. 1996). Positive reaction was visualized by incubating the slides with stable 3,3′-diaminobenzidine (DAB) for 10–20 min or 3-amino-9-ethylcarbazole (AEC) after CD31 staining. The sections were rinsed with distilled water, counterstained with Gill's hematoxylin for 1 min, and mounted with Universal Mount (Research Genetics). […] Sections analyzed for activated EGF-R were pretreated with goat anti-mouse IgG F(ab)2 fragment (1:10 dilution in PBS) for 4–6 h before incubation with the primary antibody. The positive reaction following staining for activated EGF-R was enhanced with osmium tetraoxide (4% aqueous solution) at a 1:1000 dilution in ddH2O after incubation with DAB.
Immunofluorescence Double Staining for CD31/PECAM-1 (Endothelial Cells) and TUNEL (Apoptotic Cells). Frozen tissues were sectioned (8–10 μm), mounted on positively charged slides, air-dried for 30 min, and fixed in cold acetone for 5 min, acetone+chloroform (1:1) for 5 min, and acetone for 5 min. Samples were washed 3 times with PBS, incubated with protein-blocking solution containing 5% normal horse serum and 1% normal goat serum in PBS for 20 min at room temperature, and incubated with the appropriate dilution (1:400) of rat monoclonal anti-mouse CD31 antibody (human cross-reactive) over 18 h at 4° C. After the samples were rinsed 4 times for 3 min each with PBS, the slides were incubated with the appropriate dilution (1:200) of secondary goat anti-rat conjugated to Texas Red for 1 h at room temperature in the dark. Samples were washed twice with PBS containing 0.1% Brij and washed with PBS for 5 min.
TUNEL was performed using a commercially available apoptosis detection kit with the following modifications: samples were fixed with 4% paraformaldehyde (methanol-free) for 10 min at room temperature, washed twice with PBS for 5 min, and then incubated with 0.2% Triton X-100 for 15 min at room temperature. After two washes of 5 min each with PBS, the samples were incubated with equilibration buffer (from kit) for 10 min at room temperature. The equilibration buffer was drained, and reaction buffer containing equilibration buffer, nucleotide mix, and TdT enzyme was added to the tissue sections and incubated in a humid atmosphere at 37° C. for 1 h in the dark. The reaction was terminated by immersing the samples in 2×SSC for 15 min. Samples were washed 3 times for 5 min to remove unincorporated fluorescein-dUTP. For quantification of […], the samples were incubated with 300 μg/ml of Hoechst stain for 10 min at room temperature. Fluorescent bleaching was minimized by treating slides with an enhancing reagent (Prolong solution). […]

Another assay concerns IL-8. As to the kind of experiment: In vitro expression of IL-8 by L3.6pl cells (ELISA). The format is cell-based, human. Conditions: 72 h, 1 μM PKI166 or 10 nM gemcitabine, control 1440 pg/ml. The procedure:
In vitro Expression of VEGF and IL-8. L3.6pl cells (2000 cells/38 mm^2 well) were plated into 96-well plates in 200 μl supplemented DMEM containing 5% FBS for 24 h, and then treated with 0.05, 0.5, or 1 μM PKI166. Supplemented DMEM (5% FBS) and human IgG (10 μg/ml) served as controls. Seventy-two hours later, the culture supernatants were collected, and the level of VEGF and IL-8 proteins (corrected for cell number) were determined by Quantikine ELISA kits.
Background: ELISA stands for enzyme-linked immunosorbent assay.

Setting [2] is: mean ± SD absorbance, ratio of tumor cell to normal pancreatic gland expression ×100, day 35.

Marks after values point to notes of the source that are not given here.

T1 sequence (Q02763 824-1096 limits assumed, species assumed): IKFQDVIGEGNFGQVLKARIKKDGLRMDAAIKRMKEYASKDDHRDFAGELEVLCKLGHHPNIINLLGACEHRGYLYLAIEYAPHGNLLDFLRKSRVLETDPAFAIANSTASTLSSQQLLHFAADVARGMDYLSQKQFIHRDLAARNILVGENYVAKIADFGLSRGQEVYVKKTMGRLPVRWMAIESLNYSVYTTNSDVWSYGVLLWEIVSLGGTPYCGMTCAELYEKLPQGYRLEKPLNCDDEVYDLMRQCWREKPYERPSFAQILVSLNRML

As a reminder, the IC50 is the concentration that inhibits the measured activity by half. A lower IC50 goes with greater potency in that assay. As for `C[C@@H](Nc1ncnc2[nH]c(-c3ccc(O)cc3)cc12)c1ccccc1` [PKI166, 4-(R)-phenethylamino-6-(hydroxyl) phenyl-7H-pyrrolo[2.3-d]-pyrimidine], the half-maximal inhibitory concentration (IC50) against Tek was > 1000 nM. At c-Kit, this molecule gave an IC50 of 2210 nM. Further, the “percentage of apoptotic endothelial cells over total endothelial cells” value in assay [1] (CD31/TUNEL double labeling, tumors harvested 23 days after initiation of treatment) turned out to be 20±15. Also, the “ratio of PCNA-positive over TUNEL-positive cells” value in assay [1] (calculated) was 0.64. The “Staining of pancreatic tumors for activated (phosphorylated) EGF-R” value in assay [1] (immunohistochemistry of tumors from treated nude mice) was “not the activated (phosphorylated) EGF-R”. In assay [1] (setting [2]), the IL-8 was 185 ± 11^e and the VEGF was 173 ± 20^e. In assay [1] (day 35), the “PCNA+ tumor cells” value was determined as 185±33 positive cells/field; the “TUNEL+ tumor cells” value is 287±84 positive cells/field; the “CD (CD31, tumor MVD per field)” value turned out to be 24±18. Also, in assay [1] (day 35, listed as PK1166), the “PCNA+ tumor cells” value came to 185 ± 33 positive cells/field; the “TUNEL+ tumor cells” value is on record as 287 ± 84^e positive cells/field; the “CD (CD31, tumor MVD per field)” value was found to be 24. Besides, the “IL-8 in culture supernatant” value in the assay on IL-8 was found to be 640 pg/mL.
